Tests used:
FaSSIF/pancreatin = test: in vitro stability against FaSSIF/pancreatin; assay type: in vitro ADME; details: 0 min
trypsin = test: in vitro stability against trypsin; assay type: in vitro ADME; details: 0 min
[1] = in vivo; cited from earlier work
primary microglia = test: α-syn PFF induced microglial activation, cytokine mRNA by qPCR; assay type: cell-based, mouse; details: agonist 2 μM, 150 nM PFF for 4 h
Description: Mouse microglia isolated from postnatal day 2 CD1 mouse brain were obtained from ScienCell Research Laboratories (M1900, Carlsbad, CA). […] Pre-condition: 24 hrs non-serum condition.
Total RNA from cultured cells was extracted with a RNA isolation kit (Qiagen, Valencia, CA, USA) following the instructions provided by the company. RNA concentration was measured spectrophotometrically using a NanoDrop 2000 (Biotek, Winooski, VT, USA). Subsequently, 1-2 μg of total RNA was reverse transcribed to cDNA using the High-Capacity cDNA Reverse Transcription System (Life Technologies, Grand Island, NY, USA). Comparative qPCR was performed in duplicate or triplicate for each sample using fast SYBR Green Master Mix (Life Technologies) and ViiA 7 Real-Time PCR System (Applied Biosystems, Foster City, CA, USA). The expression levels of target genes were normalized to the expression of Actb and calculated based on the comparative cycle threshold Ct method (2^−ΔΔCt).

Molecule	Remaining amount (%) after FaSSIF/Pancreatin treatment (FaSSIF/pancreatin) [%]	Remaining amount (%) after trypsin treatment (trypsin) [%]	half-life [1] [h]	α-syn PFF induced mRNA expression of TNF-α, IL-1α, IL-1β, C1q and IL-6 (primary microglia)
CC[C@H](C)[C@H](NC(=O)[C@H](Cc1ccccc1)NC(=O)[C@H](CCC(=O)O)NC(=O)[C@H](CCCCNC(=O)COCCOCCNC(=O)COCCOCCNC(=O)CC[C@H](NC(=O)CCCCCCCCCCCCCCCCC(=O)O)C(=O)O)NC(=O)[C@H](C)NC(=O)[C@H](C)NC(=O)[C@H](CCC(N)=O)NC(=O)CNC(=O)[C@H](CCC(=O)O)NC(=O)[C@H](CC(C)C)NC(=O)[C@H](Cc1ccc(O)cc1)NC(=O)[C@H](CO)NC(=O)[C@H](CO)NC(=O)[C@@H](NC(=O)[C@H](CC(=O)O)NC(=O)[C@H](CO)NC(=O)[C@@H](NC(=O)[C@H](Cc1ccccc1)NC(=O)[C@@H](NC(=O)CNC(=O)[C@H](CCC(=O)O)NC(=O)C(C)(C)NC(=O)[C@@H](N)Cc1cnc[nH]1)[C@@H](C)O)[C@@H](C)O)C(C)C)C(=O)N[C@@H](C)C(=O)N[C@@H](Cc1c[nH]c2ccccc12)C(=O)N[C@@H](CC(C)C)C(=O)N[C@H](C(=O)N[C@@H](CCCNC(=N)N)C(=O)NCC(=O)N[C@@H](CCCNC(=N)N)C(=O)NCC(=O)O)C(C)C [Semaglutide]	100.0	100.0	–	–
NLY01: long-acting PEGylated form of exenatide	–	–	88	significantly reduces

— patent US20260124278A1, “COMPOSITIONS AND METHODS FOR TREATMENT OF NEUROLOGICAL DISORDERS” (D&D Pharmatech Inc., priority 2022, published 2026)
